Measured values published in US11958844B2, “1,3,4-oxadiazole derivative compounds as histone deacetylase 6 inhibitor, and pharmaceutical composition comprising the same” (Chong Kun Dang Pharmaceutical Corp., priority 2018, dated 2024).

target: T1, HDAC6 human recombinant (Homo sapiens, UniProt Q9UBN7); assay: HDAC enzyme activity inhibition (in vitro), fluorimetric HDAC6 assay; assay type: biochemical; conditions: samples at 0.1, 1, 10, 100 and 1000 nM, 37° C. 60 minutes, fluorescence Ex 390, Em 460
T1 sequence (Q9UBN7 1-1215): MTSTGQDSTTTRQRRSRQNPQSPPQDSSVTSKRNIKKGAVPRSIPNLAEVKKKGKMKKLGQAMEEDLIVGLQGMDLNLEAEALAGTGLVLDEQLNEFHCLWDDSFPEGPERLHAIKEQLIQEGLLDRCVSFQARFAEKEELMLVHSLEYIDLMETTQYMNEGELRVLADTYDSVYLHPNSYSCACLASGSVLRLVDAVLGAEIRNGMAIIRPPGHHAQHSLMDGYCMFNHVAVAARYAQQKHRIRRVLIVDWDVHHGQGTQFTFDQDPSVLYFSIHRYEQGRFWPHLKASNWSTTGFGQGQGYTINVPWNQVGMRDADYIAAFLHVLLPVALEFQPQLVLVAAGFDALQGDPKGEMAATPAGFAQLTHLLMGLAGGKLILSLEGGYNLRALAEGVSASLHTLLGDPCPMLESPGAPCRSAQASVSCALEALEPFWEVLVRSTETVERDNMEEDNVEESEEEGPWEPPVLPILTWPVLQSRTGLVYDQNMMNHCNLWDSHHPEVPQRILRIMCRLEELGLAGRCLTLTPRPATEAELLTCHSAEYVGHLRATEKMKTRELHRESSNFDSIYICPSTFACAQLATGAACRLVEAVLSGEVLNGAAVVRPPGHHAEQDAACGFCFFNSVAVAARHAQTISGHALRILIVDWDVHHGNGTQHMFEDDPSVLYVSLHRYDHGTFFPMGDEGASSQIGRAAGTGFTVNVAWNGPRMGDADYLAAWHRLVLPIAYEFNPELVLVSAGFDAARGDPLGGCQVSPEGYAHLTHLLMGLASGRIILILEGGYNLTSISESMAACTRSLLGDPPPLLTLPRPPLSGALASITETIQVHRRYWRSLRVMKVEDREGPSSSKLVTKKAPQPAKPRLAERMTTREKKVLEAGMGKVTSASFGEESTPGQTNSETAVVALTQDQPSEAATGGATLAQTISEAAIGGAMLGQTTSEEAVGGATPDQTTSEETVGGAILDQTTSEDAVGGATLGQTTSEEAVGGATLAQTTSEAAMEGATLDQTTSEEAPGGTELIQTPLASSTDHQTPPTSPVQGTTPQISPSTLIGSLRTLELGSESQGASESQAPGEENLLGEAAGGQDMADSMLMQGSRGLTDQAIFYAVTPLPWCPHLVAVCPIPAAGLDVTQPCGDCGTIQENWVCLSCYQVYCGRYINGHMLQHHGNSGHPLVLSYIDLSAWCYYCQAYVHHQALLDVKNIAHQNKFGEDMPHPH
Protocol: To identify this, HDAC1/6 enzyme selectivity and cell selectivity (HDAC1: histone acetylation/HDAC6: tubulin acetylation) were investigated accordingly.
An HDAC enzyme inhibitory ability of a test material was measured by means of HDAC1 Fluorimetric Drug Discovery Assay Kit (Enzolifesciences: BML-AK511) and HDAC6 human recombinant (Calbiochem: 382180). For an HDAC1 assay, samples were treated at a concentration of 100, 1000 and 10000 nM. For an HDAC6 assay, samples were treated at a concentration of 0.1, 1, 10, 100 and 1000 nM. After such sample treatment, a reaction was continued at 37° C. for 60 minutes, then treated with a developer, and then subjected to reaction at 37° C. for 30 minutes, after which fluorescence intensity (Ex 390, Em 460) was measured by means of FlexStation3 (Molecular device).

SMILES | IC50 [nM]
O=c1cc(-c2nnc(C(F)F)o2)ccn1Cc1ccccc1F [Compound 17, 4-(5-(difluoromethyl)-1,3,4-oxadiazole-2-yl)-1-(2-fluorobenzyl)pyridine-2(1H)-one] | 507
O=c1cc(-c2nnc(C(F)F)o2)ccn1C/C=C/c1ccccc1 [Compound 5, 1-cinnamyl-4-(5-(difluoromethyl)-1,3,4-oxadiazole-2-yl)pyridine-2(1H)-one] | 40
O=C(N[C@@H](Cn1ccc(-c2nnc(C(F)F)o2)cc1=O)c1ccccc1)N1CCOCC1 [Compound 57, (R)—N-(2-(4-(5-(difluoromethyl)-1,3,4-oxadiazole-2-yl)-2-oxopyridine-1(2H)-yl)-1-phenylethyl)morpholine-4-carboxamide] | 301
O=c1cc(-c2nnc(C(F)F)o2)ccn1Cc1cc(F)ccc1F [Compound 10, 1-(2,5-difluorobenzyl)-4-(5-(difluoromethyl)-1,3,4-oxadiazole-2-yl)pyridine-2(1H)-one] | 217
O=c1cc(-c2nnc(C(F)F)o2)ccn1Cc1ccc([N+](=O)[O-])cc1 [Compound 26, 4-(5-(difluoromethyl)-1,3,4-oxadiazole-2-yl)-1-(4-nitrobenzyl)pyridine-2(1H)-one] | 272
O=c1cc(-c2nnc(C(F)F)o2)ccn1Cc1ccccc1Cl [Compound 12, 1-(2-chlorobenzyl)-4-(5-(difluoromethyl)-1,3,4-oxadiazole-2-yl)pyridine-2(1H)-one] | 631
O=C(Cn1ccc(-c2nnc(C(F)(F)F)o2)cc1=O)c1ccc(Cl)cc1 [Compound 34, 1-(2-(4-chlorophenyl)-2-oxoethyl)-4-(5-(trifluoromethyl)-1,3,4-oxadiazole-2-yl)pyridine-2(1H)-one] | 2320
O=c1cc(-c2nnc(C(F)F)o2)ccn1Cc1noc(C(F)(F)F)n1 [Compound 28, 4-(5-(difluoromethyl)-1,3,4-oxadiazole-2-yl)-1-((5-(trifluoromethyl)-1,2,4-oxadiazole-3-yl)methyl)pyridine-2(1H)-one] | 156
CC(C)=CCn1ccc(-c2nnc(C(F)F)o2)cc1=O [Compound 54, 4-(5-(difluoromethyl)-1,3,4-oxadiazole-2-yl)-1-(3-methylbut-2-en-1-yl)pyridine-2(1H)-one] | 663
COc1ccc(C(=O)Cn2ccc(-c3nnc(C(F)F)o3)cc2=O)c(OC)c1 [Compound 20, 4-(5-(difluoromethyl)-1,3,4-oxadiazole-2-yl)-1-(2-(2,4-dimethoxyphenyl)-2-oxoethyl) pyridine-2(1H)-one] | 257
O=C(Cn1ccc(-c2nnc(C(F)F)o2)cc1=O)c1ccc(Cl)s1 [Compound 56, 1-(2-(5-chlorothiophene-2-yl)-2-oxoethyl)-4-(5-(difluoromethyl)-1,3,4-oxadiazole-2-yl)pyridine-2(1H)-one] | 126
O=c1cc(-c2nnc(C(F)(F)F)o2)ccn1Cc1cc(F)c(F)cc1F [Compound 30, 1-(2,4,5-trifluorobenzyl)-4-(5-(trifluoromethyl)-1,3,4-oxadiazole-2-yl)pyridine-2(1H)one] | 1790
O=c1cc(-c2nnc(C(F)F)o2)ccn1Cc1ccc2ccccc2c1 [Compound 1, 4-(5-(difluoromethyl)-1,3,4-oxadiazole-2-yl)-1-(naphthalene-2-ylmethyl)pyridine-2(1H)-one] | 82
O=C(Cn1ccc(-c2nnc(C(F)(F)F)o2)cc1=O)c1ccc(Cl)s1 [Compound 37, 1-(2-(5-chlorothiophene-2-yl)-2-oxoethyl)-4-(5-(trifluoromethyl)-1,3,4-oxadiazole-2-yl)pyridine-2(1H)-one] | 1300
COc1cc(CCn2ccc(-c3nnc(C(F)F)o3)cc2=O)cc(OC)c1 [Compound 8, 4-(5-(difluoromethyl)-1,3,4-oxadiazole-2-yl)-1-(3,5-dimethoxyphenethyl)pyridine-2(1H)-one] | 253
O=c1cc(-c2nnc(C(F)F)o2)ccn1CCn1cccn1 [Compound 6, 1-(2-(1H-pyrazole-1-yl)ethyl)-4-(5-(difluoromethyl)-1,3,4-oxadiazole-2-yl)pyridine-2(1H)-one] | 456
O=C(Cn1ccc(-c2nnc(C(F)F)o2)cc1=O)c1ccc2ccccc2c1 [Compound 7, 4-(5-(difluoromethyl)-1,3,4-oxadiazole-2-yl)-1-(2-(naphthalene-2-yl)-2-oxoethyl)pyridine-2(1H)-one] | 364
O=C(N[C@@H](Cn1ccc(-c2nnc(C(F)F)o2)cc1=O)c1ccccc1)N1CCS(=O)(=O)CC1 [Compound 58, (R)—N-(2-(4-(5-(difluoromethyl)-1,3,4-oxadiazole-2-yl)-2-oxopyridine-1(2H)-yl)-1-phenylethyl)thiomorpholine-4-carboxamide 1,1-dioxide] | 358
O=C(Cn1ccc(-c2nnc(C(F)(F)F)o2)cc1=O)OCc1ccccc1 [Compound 40, benzyl 2-(2-oxo-4-(5-(trifluoromethyl)-1,3,4-oxadiazole-2-yl)pyridine-1(2H)-yl)acetate] | 945
COc1cccc(C(=O)Cn2ccc(-c3nnc(C(F)F)o3)cc2=O)c1 [Compound 22, 4-(5-(difluoromethyl)-1,3,4-oxadiazole-2-yl)-1-(2-(3-methoxyphenyl)-2-oxoethyl)pyridine-2(1H)-one] | 427
O=C(C(Cn1ccc(-c2nnc(C(F)F)o2)cc1=O)c1ccccc1)N1CCS(=O)(=O)CC1 (stereo not drawn) [Compound 44] | 382
